Results on eight molecules are retold here after ChEMBL document CHEMBL1128620, “Relationship between cytotoxicity and DNA-binding affinity of amidine derivatives of tetrahydroquino[4,3-b][1]benzazepines and tetrahydrobenzo[k]naphthyridines” (Bioorg Med Chem Lett, 1995).

Experiment [1] has as its system CH1. Description: In vitro cytotoxicity against CH1 ovarian carcinoma cells. The class given is functional, cell-based. The note with it: Homo sapiens.
For experiment [2], the system named is Nucleic Acid. Description: DNA binding affinity was evaluated as thermal denaturation using calf thymus DNA. The experiment is classed as nucleic-acid assay. Conditions: Bos taurus.
Experiment [3] has as its system SK-OV-3. Description: In vitro cytotoxicity against SKOV-3 ovarian carcinoma cells. The experiment is classed as functional, cell-based. The note with it: Homo sapiens.

As to `CC1C[C@]2(C)C(NCCCO)=Nc3ccccc3[C@@H]2N(C)c2ccccc21` (some centres undefined), the IC50 turned out to be 14 µM in experiment [1] and 32.5 µM in experiment [3]. The ΔTm in experiment [2] was 0.24 °C.

For `CCCNC1=Nc2ccccc2[C@@H]2c3cccc(NC)c3C(C)C[C@]12C` (some centres undefined), the IC50 in experiment [1] was 9 µM; in experiment [3] it was 12 µM. In addition, the thermal shift (ΔTm) in experiment [2] worked out at 0.29 °C.

As to `CCCNC1=Nc2ccccc2[C@@H]2N(C)c3ccccc3C(C)C[C@]12C` (some centres undefined), the half-inhibitory concentration (IC50) came to 10.5 µM in experiment [1] and 1.4 µM in experiment [3]. The ΔTm in experiment [2] was determined as 0.17 °C.

For `CNc1cccc2c1C(C)C[C@]1(C)C(NCCCN)=Nc3ccccc3[C@H]21` (some centres undefined), the IC50 was 2 µM in experiment [1] and 3.1 µM in experiment [3]. Further, the ΔTm in experiment [2] amounted to 0.88 °C.

In the case of `CNc1cccc2c1C(C)C[C@]1(C)C(NCCCCN)=Nc3ccccc3[C@H]21` (some centres undefined), the IC50 in experiment [1] turned out to be 3.5 µM; in experiment [3] it was 2.25 µM. Moreover, in experiment [2], the ΔTm came out at 1.14 °C.

In the case of `CC1C[C@]2(C)C(NCCCCN)=Nc3ccccc3[C@@H]2N(C)c2ccccc21` (some centres undefined), the IC50 in experiment [1] and in experiment [3] was 1.6 µM each time. In addition, the shift in melting temperature (ΔTm) in experiment [2] was 0.58 °C.

For the molecule `CC1C[C@]2(C)C(NCCCN)=Nc3ccccc3[C@@H]2N(C)c2ccccc21` (some centres undefined), the IC50 in experiment [1] turned out to be 0.5 µM; in experiment [3], 3.3 µM. In addition, the ΔTm in experiment [2] was 0.46 °C.

Consider `CNc1cccc2c1C(C)C[C@]1(C)C(NCCCO)=Nc3ccccc3[C@H]21` (some centres undefined), for which the results for the IC50 in experiment [1] and in experiment [3] were 6 µM and 12.5 µM, respectively. Further, the ΔTm in experiment [2] was 0.35 °C.

Usually IC50 stands for the concentration that gives 50% inhibition. The low end stands for higher potency, the high end for lower potency. By ΔTm is commonly meant the change in melting temperature against a reference sample.
